From US9963448B2, “Bicyclic inhibitors of PAD4” (Padlock Therapeutics, Inc., priority 2015, dated 2018)
Where a name gives a salt, the structure may show the parent alone. Read-outs that look alike come from different tables or passages of the source.

Legend:
hPAD4 = hPAD4 (Homo sapiens, UniProt Q9UM07); test: hPAD4 RFMS (RapidFire mass spectrometry) PAD4 inhibition assay; assay type: biochemical; conditions: hPAD4 enzyme, RFMS readout;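 on hPAD4 RFMS pIC50: grade E means pIC50 at most 4 and F means pIC50 4.0 to 5.0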
Sequence of hPAD4 (Q9UM07 whole entry): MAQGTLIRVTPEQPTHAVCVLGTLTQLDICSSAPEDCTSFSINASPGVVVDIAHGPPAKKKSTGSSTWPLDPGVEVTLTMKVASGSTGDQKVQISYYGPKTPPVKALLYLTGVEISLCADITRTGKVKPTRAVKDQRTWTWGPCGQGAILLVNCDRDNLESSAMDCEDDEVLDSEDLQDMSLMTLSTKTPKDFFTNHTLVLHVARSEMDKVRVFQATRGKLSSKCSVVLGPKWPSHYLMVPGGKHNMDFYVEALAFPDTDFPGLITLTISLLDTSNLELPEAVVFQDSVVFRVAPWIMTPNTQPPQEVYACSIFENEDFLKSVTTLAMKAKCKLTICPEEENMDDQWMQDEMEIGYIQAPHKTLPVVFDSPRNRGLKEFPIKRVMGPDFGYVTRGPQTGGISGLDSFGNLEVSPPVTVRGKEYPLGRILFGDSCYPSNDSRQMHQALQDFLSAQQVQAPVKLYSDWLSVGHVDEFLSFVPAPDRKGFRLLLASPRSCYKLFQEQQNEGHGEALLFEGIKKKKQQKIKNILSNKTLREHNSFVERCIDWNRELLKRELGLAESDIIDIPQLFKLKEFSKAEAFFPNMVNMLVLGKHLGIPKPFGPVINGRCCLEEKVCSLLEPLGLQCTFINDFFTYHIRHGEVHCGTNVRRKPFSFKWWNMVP
Protocol: (§1) Compounds of the present invention were assayed as inhibitors of PAD4 using the assay protocol described below.
(§2) Compound stock solutions were stored at RT. […] Final assay conditions were as follows:
(§3) Total incubation time: 65 mins at 37° C.
(§4) Stop solution: 40 μl 5% TCA in ACN
(§5) The compound numbers correspond to the compound numbers in Table 1. […] The term pIC50=−log(IC50). […] “NA” stands for “not assayed.”

mPAD4 = mPAD4 (Mus musculus, UniProt Q9Z183); test: mPAD4 RFMS PAD4 inhibition assay; assay type: biochemical; conditions: mPAD4, RFMS readout;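 on mPAD4 RFMS pIC50: grade E means pIC50 at most 4 and F means pIC50 4.0 to 5.0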
Sequence of mPAD4 (Q9Z183 whole entry): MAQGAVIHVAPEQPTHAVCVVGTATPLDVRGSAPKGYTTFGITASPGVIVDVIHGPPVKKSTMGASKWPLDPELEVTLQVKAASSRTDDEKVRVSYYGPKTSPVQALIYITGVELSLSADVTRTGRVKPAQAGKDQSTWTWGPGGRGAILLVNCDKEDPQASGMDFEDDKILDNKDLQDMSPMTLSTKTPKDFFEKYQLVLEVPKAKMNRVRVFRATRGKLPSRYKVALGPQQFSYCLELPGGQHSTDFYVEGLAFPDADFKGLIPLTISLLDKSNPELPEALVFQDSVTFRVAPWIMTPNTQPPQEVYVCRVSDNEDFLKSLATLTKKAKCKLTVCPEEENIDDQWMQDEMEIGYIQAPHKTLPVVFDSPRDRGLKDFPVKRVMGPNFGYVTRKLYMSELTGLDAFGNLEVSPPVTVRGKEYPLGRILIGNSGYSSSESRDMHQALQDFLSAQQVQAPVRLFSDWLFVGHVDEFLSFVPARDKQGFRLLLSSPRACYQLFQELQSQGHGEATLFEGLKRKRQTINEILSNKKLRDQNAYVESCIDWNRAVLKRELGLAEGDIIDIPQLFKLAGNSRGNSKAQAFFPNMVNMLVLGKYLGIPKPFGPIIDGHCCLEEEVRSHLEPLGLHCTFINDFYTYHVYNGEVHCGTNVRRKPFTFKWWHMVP
Protocol: as §1, §2, §3, §4, §5

[1] = pIC50=−log(IC50), read-out: hPAD4 RFMS pIC50 (converted)
[2] = pIC50=−log(IC50), read-out: mPAD4 RFMS pIC50 (converted)

SMILES | IC50 (hPAD4; [1]) [µM] | IC50 (hPAD4; read-out: hPAD4 RFMS IC50) [µM] | IC50 (mPAD4; [2]) [µM] | IC50 (mPAD4; read-out: mPAD4 RFMS IC50) [µM]
COc1ccc2cc(-c3nc4cc(C(=O)N5CCC[C@@H](N)C5)cc(OC)c4n3C)n(CC3CC3)c2n1 [Compound I-33, (3R)-1-{2-[1-(cyclopropylmethyl)-6-methoxy-1H-pyrrolo[2,3-b]pyridin-2-yl]-7-methoxy-1-methyl-1H-1,3-benzodiazole-5-carbonyl}piperidin-3-amine] | < 1 | < 1 | < 1 | < 1
CCn1c(-c2cc3cccnc3n2CC2CC2)nc2cc(C(=O)N3CCC[C@@H](N)C3)cc(OC)c21 [Compound I-119, (3R)-1-{2-[1-(cyclopropylmethyl)-1H-pyrrolo[2,3-b]pyridin-2-yl]-1-ethyl-7-methoxy-1H-1,3-benzodiazole-5-carbonyl}piperidin-3-amine] | < 1 | < 1 | < 1 | < 1
CCn1c(-c2cc3cccnc3n2CC2CC2)nc2cc(C(=O)N3CC[C@H]4CCN[C@H]4C3)cc(OC)c21 [Compound I-22] | 10 to 100 | > 10 | 10 to 100 | > 10
COC1CCN(C(=O)c2ccc3c(c2)nc(-c2cc4cccnc4n2CC2CC2)n3C)CC1N (racemic) [Compound I-62, 1-{2-[1-(cyclopropylmethyl)-1H-pyrrolo[2,3-b]pyridin-2-yl]-1-methyl-1H-1,3-benzodiazole-5-carbonyl}-4-methoxypiperidin-3-amine] | 1 to 10 | 1 to 5 | 1 to 10 | 5 to 10
Cn1c(-c2cc3cccnc3n2CC2CC2)nc2cc(C(=O)N3CCC[C@@H](N)C3)cc(C(N)=O)c21 [Compound I-112, 5-[(3R)-3-aminopiperidine-1-carbonyl]-2-[1-(cyclopropylmethyl)-1H-pyrrolo[2,3-b]pyridin-2-yl]-1-methyl-1H-1,3-benzodiazole-7-carboxamide hydrochloride] | 1 to 10 | 5 to 10 | 1 to 10 | 1 to 5
COc1cc(C(=O)N2CC3CCC2[C@@H]3N)cc2nc(-c3cc4cccnc4n3CC3CC3)n(C)c12 (some centres unmarked) [Compound I-30] | 10 to 100 | > 10 | 10 to 100 | > 10

Further lines, results first:

IC50 (hPAD4; [1]) [µM] | IC50 (hPAD4; read-out: hPAD4 RFMS IC50) [µM] | IC50 (mPAD4; [2]) [µM] | IC50 (mPAD4; read-out: mPAD4 RFMS IC50) [µM] | SMILES
< 1 | < 1 | < 1 | < 1 | CO[C@]1(C)C[C@H](Cn2c(-c3cc4cccnc4n3CC3CC3)nc3cc(C(=O)N4C[C@H]5CC[C@@H]4[C@@H]5N)cc(F)c32)C1 [Compound I-223]
< 1 | < 1 | 1 to 10 | 1 to 5 | COc1cc(C(=O)N2CCC[C@@H](N)C2)cc2nc(-c3cc4cc(C#N)cnc4n3CC3CC3)n(C)c12 [Compound I-132]
1 to 10 | 1 to 5 | < 1 | < 1 | COc1cc(C(=O)N2CCC[C@@H](N)C2)cc2nc(-c3cc4cccnc4n3CCF)n(C)c12 [Compound I-146]
10 to 100 | > 10 | 10 to 100 | > 10 | CN[C@@H]1[C@@H]2CC[C@H]1N(C(=O)c1cc(OC)c3c(c1)nc(-c1cc4cccnc4n1CC1CC1)n3C)C2 [Compound I-237, (1R,4R,7R)-2-{2-[1-(Cyclopropylmethyl)-1H-pyrrolo[2,3-b]pyridin-2-yl]-7-methoxy-1-methyl-1H-1,3-benzodiazole-5-carbonyl}-N-methyl-2-azabicyclo[2.2.1]heptan-7-amine]
< 1 | < 1 | < 1 | < 1 | CCn1c(-c2nc3cc(C(=O)N4C[C@H]5CC[C@@H]4[C@@H]5N)cc(OC)c3n2C)cc2ccc(OC(F)F)nc21 [Compound I-200, (1R,4R,7R)-2-{2-[6-(difluoromethoxy)-1-ethyl-1H-pyrrolo[2,3-b]pyridin-2-yl]-7-methoxy-1-methyl-1H-1,3-benzodiazole-5-carbonyl}-2-azabicyclo[2.2.1]heptan-7-amine]
